According to US9028845B2, “Chimeric immunomodulatory compounds and methods of using the same-IV” (Dynavax Technologies Corporation, priority 2001, dated 2015):
“Also recorded” adds a separate entry of the source.

Key:
[1] = test system: human PBMCs; test: Human PBMC cytokine response assay (IFN-γ and IFN-α in cell-free medium by ELISA), with or without cPLGA; format: cell-based; settings: for IFN-a (pg/ml) 28218 / IFN-g (pg/ml) 28218: donor 28218; for IFN-a (pg/ml) 28219 / IFN-g (pg/ml) 28219: donor 28219; for IFN-a (pg/ml) 28220 / IFN-g (pg/ml) 28220: donor 28220; for IFN-a (pg/ml) 28221 / IFN-g (pg/ml) 28221: donor 28221; for IFN-α (pg/ml) mean / IFN-γ (pg/ml) mean: mean of donors 110, 112, 119, 120; for IFN-α induction, in words: used alone;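 on IFN-α (pg/ml) mean: 20 µg/mL compound for 24 hours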;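 on IFN-γ (pg/ml) mean: 20 µg/mL compound for 24 hours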
[2] = test system: CD19+ B cells; test: Human B cell proliferation assay (3H-thymidine incorporation); settings: for B cell proliferation (FIG. 11), in words: purified human B cells, 5 μg/ml, 96 h
Description: Purified human B cells from 2 donors were stimulated with 5 μg/ml P-6 or CIC for 96 h. Proliferation was assessed by ^3H-thymidine incorporation.
A CIC is considered to induce “little” human B cell proliferation if B cell proliferation in the presence of the CIC is between greater than 15 to about 30% of P-6.
Human PBMCs were isolated from heparanized blood from two normal subjects. Some PBMCs were held in reserve while the remainder was incubated with CD19+ MACS beads (Miltenyi Biotec). These cells were then passed through a magnet, separating the CD19+ B cells through positive selection. […] B cells were then cultured at 1×10^5/200 μl/well in 96-well round-bottomed plates. In some cases, PBMCs were also cultured, but at 2×10^5/200 μl/well. Cells were stimulated in triplicate with 2 μg/ml polynucleotide or CIC. The culture period was 48 hours at 37° C. At the end of the culture period, the plates were pulsed with ^3H-thymidine, 1 μCi/well, and incubated for an additional 8 hours. Then the plates were harvested using standard liquid scintillation techniques and data was collected in counts per minutes (cpm).

[3] = Table 24, mean of donors 28234-28237
[4] = Table 25, mean of donors 28250-28253
[5] = mean of donors 28185-28188, Table 15
[6] = mean of donors 28218-28221, 20 μg/ml, 24 h
[7] = B cells, donor 121, 2 μg/ml, Experiment B
[8] = B cells, donor 194, 2 μg/ml, Experiment B

Substance: (5′-TCGTCGA-3′-HEG)2-glycerol-HEG-5′-TCGTCGA-3′ [Compound C-94]
- IFN-α induction (FIG. 10), in words ([1]; PBMCs from 8 donors, 20 μg/ml, 24 h): induce high levels of IFN-α
- IFN-α ([1]; Table 11, donor 28042): 302 pg/mL
- IFN-γ ([1]; Table 11, donor 28042): 443 pg/mL
- IFN-α ([1]; Table 11, donor 28043): 252 pg/mL
- IFN-γ ([1]; Table 11, donor 28043): 198 pg/mL
- IFN-α ([1]; Table 11, donor 28044): 664 pg/mL
- IFN-γ ([1]; Table 11, donor 28044): 1417 pg/mL
- IFN-α ([1]; Table 11, donor 28045): 1855 pg/mL
- IFN-γ ([1]; Table 11, donor 28045): 888 pg/mL
- IFN-α mean ([1]; Table 11, mean of donors): 768 pg/mL
- IFN-γ mean ([1]; Table 11, mean of donors): 736 pg/mL
- IFN-α ([1]; Table 24, donor 28234): 16 pg/mL
- IFN-γ ([1]; Table 24, donor 28234): 7 pg/mL
- IFN-α ([1]; Table 24, donor 28235): 118 pg/mL
- IFN-γ ([1]; Table 24, donor 28235): 161 pg/mL
- IFN-α ([1]; Table 24, donor 28236): 548 pg/mL
- IFN-γ ([1]; Table 24, donor 28236): 239 pg/mL
- IFN-α ([1]; Table 24, donor 28237): 3631 pg/mL
- IFN-γ ([1]; Table 24, donor 28237): 1116 pg/mL
- IFN-α mean [1, 3]: 1078 pg/mL
- IFN-γ mean [1, 3]: 381 pg/mL
- IFN-a ([1]; Table 25, donor 28250): 245 pg/mL
- IFN-g ([1]; Table 25, donor 28250, polynucleotides/spacers at amounts equivalent to the CIC, spacers alone 9 uM): 340 pg/mL
- IFN-a ([1]; Table 25, donor 28251): 645 pg/mL
- IFN-g ([1]; Table 25, donor 28251): 60 pg/mL
- IFN-a ([1]; Table 25, donor 28252): 323 pg/mL
- IFN-g ([1]; Table 25, donor 28252): 287 pg/mL
- IFN-a ([1]; Table 25, donor 28253): 1198 pg/mL
- IFN-g ([1]; Table 25, donor 28253): 128 pg/mL
- IFN-a mean [1, 4]: 603 pg/mL
- IFN-g mean [1, 4]: 204 pg/mL
- IFN-α induced relative to linear CIC C-21 ([1]; branched vs linear CIC with the same nucleic acid moieties): 4 fold
- IFN-α ([1]; donor 110, Table 14): 1608 pg/mL
- IFN-γ ([1]; donor 110, Table 14): 5168 pg/mL
- IFN-α ([1]; donor 112, Table 14): 144 pg/mL
- IFN-γ ([1]; donor 112, Table 14): 284 pg/mL
- IFN-α ([1]; donor 119, Table 14): 2610 pg/mL
- IFN-γ ([1]; donor 119, Table 14): 104 pg/mL
- IFN-α ([1]; donor 120, Table 14): 878 pg/mL
- IFN-γ ([1]; donor 120, Table 14): 120 pg/mL
- IFN-a ([1]; donor 28185, Table 15): 1895 pg/mL
- IFN-g ([1]; donor 28185, Table 15): 181 pg/mL
- IFN-a ([1]; donor 28186, Table 15): 239 pg/mL
- IFN-g ([1]; donor 28186, Table 15): 61 pg/mL
- IFN-a ([1]; donor 28187, Table 15): 136 pg/mL
- IFN-g ([1]; donor 28187, Table 15): 384 pg/mL
- IFN-a ([1]; donor 28188, Table 15): 13 pg/mL
- IFN-g ([1]; donor 28188, Table 15): 17 pg/mL
- IFN-a (pg/ml) 28218 ([1]; 20 μg/ml, 24 h): 32 pg/mL
- IFN-g (pg/ml) 28218 ([1]; 20 μg/ml, 24 h): 15 pg/mL
- IFN-a (pg/ml) 28219 ([1]; 20 μg/ml, 24 h): 167 pg/mL
- IFN-g (pg/ml) 28219 ([1]; 20 μg/ml, 24 h): 39 pg/mL
- IFN-a (pg/ml) 28220 ([1]; 20 μg/ml, 24 h): 633 pg/mL
- IFN-g (pg/ml) 28220 ([1]; 20 μg/ml, 24 h): 44 pg/mL
- IFN-a (pg/ml) 28221 ([1]; 20 μg/ml, 24 h): 412 pg/mL
- IFN-g (pg/ml) 28221 ([1]; 20 μg/ml, 24 h): 269 pg/mL
- IFN-α (pg/ml) mean ([1]; Table 14): 1310 pg/mL
- IFN-γ (pg/ml) mean ([1]; Table 14): 1419 pg/mL
- IFN-a (pg/ml) mean [1, 5]: 571 pg/mL
- IFN-g (pg/ml) mean [1, 5]: 161 pg/mL
- IFN-a (pg/ml) mean [1, 6]: 311 pg/mL
- IFN-g (pg/ml) mean [1, 6]: 92 pg/mL
- IFN-a (pg/ml) ×2 ([1]; mean ×2, Table 15): 1142 pg/mL
- IFN-g (pg/ml) ×4 ([1]; mean ×4, Table 15): 644 pg/mL
- IFN-α induction, in words [1]: dramatically higher; also recorded: induced more IFN-α relative to linear CICs with HEG spacers; also recorded: HEG (C-94)>TEG (C-103)>C3 (C-104)=no linker (C-28)
- cpm1 [2, 7]: 11418 cpm
- cpm2 [2, 7]: 14406 cpm
- cpm3 [2, 7]: 11110 cpm
- mean cpm ([2]; B cells, donor 121 mean, 2 μg/ml, Experiment B): 12311 cpm
- cpm1 [2, 8]: 7361 cpm
- cpm2 [2, 8]: 8505 cpm
- cpm3 [2, 8]: 5349 cpm
- mean cpm ([2]; B cells, donor 194 mean, 2 μg/ml, Experiment B): 7072 cpm
- mean of both ([2]; B cells, mean of donors 121 and 194, 2 μg/ml, Experiment B): 9692 cpm
- B cell proliferation (FIG. 11), in words [2]: induce B cells to proliferate

Substance: 5′-TCGATTT-3′-HEG-5′-TCGATTT-3′-HEG-5′-TCGATTT-3′ [Compound C-74]
- B cell proliferation (FIG. 11), in words [2]: induced moderate levels of B cell proliferation

Substance: 5′-TGACTGTGA-3′-HEG-5′-ACGTTCG-3′-HEG-5′-AGATGAT-3′ [Compound C-53]
- IFN-α ([1]; Table 11, donor 28042): 0 pg/mL
- IFN-γ ([1]; Table 11, donor 28042): 39 pg/mL
- IFN-α ([1]; Table 11, donor 28043): 0 pg/mL
- IFN-γ ([1]; Table 11, donor 28043): 27 pg/mL
- IFN-α ([1]; Table 11, donor 28044): 0 pg/mL
- IFN-γ ([1]; Table 11, donor 28044): 38 pg/mL
- IFN-α ([1]; Table 11, donor 28045): 5 pg/mL
- IFN-γ ([1]; Table 11, donor 28045): 26 pg/mL
- IFN-α mean ([1]; Table 11, mean of donors): 1 pg/mL
- IFN-γ mean ([1]; Table 11, mean of donors): 32 pg/mL

Substance: 5′-TTCGTTT-3′-HEG-5′-TTCGTTT-3′-HEG-5′-TTCGTTT-3′ [Compound C-46]
- IFN-α ([1]; Table 10, donor 28042): 24 pg/mL
- IFN-γ ([1]; Table 10, donor 28042): 399 pg/mL
- IFN-α ([1]; Table 10, donor 28043): 73 pg/mL
- IFN-γ ([1]; Table 10, donor 28043): 814 pg/mL
- IFN-α ([1]; Table 10, donor 28044): 26 pg/mL
- IFN-γ ([1]; Table 10, donor 28044): 480 pg/mL
- IFN-α ([1]; Table 10, donor 28045): 3 pg/mL
- IFN-γ ([1]; Table 10, donor 28045): 63 pg/mL
- IFN-α mean ([1]; Table 10, mean of donors): 31 pg/mL
- IFN-γ mean ([1]; Table 10, mean of donors): 439 pg/mL
- IFN-α ([1]; donor 110, Table 14): 58 pg/mL
- IFN-γ ([1]; donor 110, Table 14): 1224 pg/mL
- IFN-α ([1]; donor 112, Table 14): 2 pg/mL
- IFN-γ ([1]; donor 112, Table 14): 400 pg/mL
- IFN-α ([1]; donor 119, Table 14): 208 pg/mL
- IFN-γ ([1]; donor 119, Table 14): 68 pg/mL
- IFN-α ([1]; donor 120, Table 14): 48 pg/mL
- IFN-γ ([1]; donor 120, Table 14): 36 pg/mL
- IFN-α (pg/ml) mean ([1]; Table 14): 79 pg/mL
- IFN-γ (pg/ml) mean ([1]; Table 14): 432 pg/mL
- immunomodulatory activity (IFN-γ / IFN-α secretion), in words ([1]; used alone (no cPLGA)): more active than other CG-containing CICs

Substance: 5′-GsGsGsGs-3′-C3-5′-ATCGAT-3′-C3-5′-TGATGCATCA-3′-C3-5′-ATCGAT-3′-C3-5′-GsGsGsGsGsG-3′ (s = phosphorothioate linkages, otherwise linkages are phosphodiester) (TGATGCATCA is SEQ ID NO: 105) (listed as DNA, chemistry not fully specified) [Compound C-87]
- IFN-a (pg/ml) 28218 ([1]; 20 μg/ml, 24 h): 3075 pg/mL
- IFN-g (pg/ml) 28218 ([1]; 20 μg/ml, 24 h): 83 pg/mL
- IFN-a (pg/ml) 28219 ([1]; 20 μg/ml, 24 h): 32 pg/mL
- IFN-g (pg/ml) 28219 ([1]; 20 μg/ml, 24 h): 24 pg/mL
- IFN-a (pg/ml) 28220 ([1]; 20 μg/ml, 24 h): 4269 pg/mL
- IFN-g (pg/ml) 28220 ([1]; 20 μg/ml, 24 h): 38 pg/mL
- IFN-a (pg/ml) 28221 ([1]; 20 μg/ml, 24 h): 265 pg/mL
- IFN-g (pg/ml) 28221 ([1]; 20 μg/ml, 24 h): 977 pg/mL
- IFN-a (pg/ml) mean [1, 6]: 1910 pg/mL
- IFN-g (pg/ml) mean [1, 6]: 281 pg/mL
- IFN-α induction, in words [1]: remarkable induction of IFN-α
